Paper PMC11684029, “Discovery of VU6024578/BI02982816: An mGlu1 Positive Allosteric Modulator with Efficacy in Preclinical Antipsychotic and Cognition Models” (Journal of Medicinal Chemistry, 2024)

Experiments:
human mGlu1 = molecular target: T1, human mGlu1 (Homo sapiens, UniProt Q13255); assay: mGlu1 calcium mobilization (triple-add) PAM assay; format: cell-based; settings: PAM, calcium flux, EC20 glutamate
T1 construct: expressed in transfected cells; pcDNA5/TO)
Experimental: Tetracycline-inducible human mGlu1 WT-T-REx-293 cells (Wu et al, Science 2014) were cultured at 37 °C in Dulbecco’s Modified Eagle Medium (DMEM) growth medium containing 10% Tet-tested FBS, 2 mM L-glutamine, 20 mM HEPES, 0.1 mM nonessential amino acids, 1 mM sodium pyruvate, antibiotic/antimycotic, 100 μg/mL hygromycin and 5 μg/mL blasticidin in the presence of 5% CO2. […] The mutant stable cell lines were generated in the same manner as the WT as previously described and cultured in the growth medium described above.
To determine the potency of mGlu1 PAMs in calcium assays, Ca flux was measured as previously described in ACS Chem. Bio. 2014, 9, 2334–2346. Briefly, the day before the assay, human mGlu1 WT-T-REx-293 cells were plated in black-walled, clear-bottomed, poly-D-lysine coated 96-well plates at 80,000 cells/100 μL assay medium (DMEM supplemented with 10% dialyzed FBS, 20 mM HEPES, and 1 mM sodium pyruvate) containing 50 ng/mL of tetracycline to induce mGlu1 expression. The next day, media was removed and the cells were incubated with 50 μL of 1.15 μM Fluo-4 AM dye solution prepared in assay buffer (buffer (Hank’s balanced salt solution, 20 mM HEPES, and 2.5 mM probenecid) for 45 min at 37 °C, the dye was removed and replaced with 45 μL of assay buffer. Then, calcium flux was measured using Flexstation II (Molecular Devices, Sunnyvale, CA). Compounds serially diluted at half log concentrations in DMSO were further diluted in assay buffer. The compounds or DMSO vehicle were added to cells and incubated for 2.5 min and an EC20 concentration of glutamate was added and incubated for 1 min. An ECmax concentration of glutamate was also added to cells that were incubated with DMSO vehicle to accurately calculate the EC20 calcium response. Data were normalized by subtracting the basal florescent peak before EC20 agonist addition from the maximal peak elicited by EC20 agonist and PAMs. Using GraphPad Prism 5.0, the concentration response curves were generated and the potencies of the mGlu1 PAMs were determined.

[1] = intrinsic clearance, predicted hepatic clearance; format: in vitro ADME, rat; settings: in vitro predicted hepatic clearance
Experimental: (§1) Human or rat hepatic microsomes (0.5 mg/mL) and 1 μM test compound were incubated in 100 mM potassium phosphate pH 7.4 buffer with 3 mM MgCl2 at 37 °C with constant shaking. After a 5 min preincubation, the reaction was initiated by addition of NADPH (1 mM). At selected time intervals (0, 3, 7, 15, 25, and 45 min), aliquots were taken and subsequently placed into a 96-well plate containing cold acetonitrile with internal standard (50 ng/mL carbamazepine). Plates were then centrifuged at 3000 rcf (4 °C) for 10 min, and the supernatant was transferred to a separate 96-well plate and diluted 1:1 with water for LC/MS/MS analysis. The in vitro half-life (T1/2, min, eq 1), intrinsic clearance (CLint, mL/min/kg, eq 2) and subsequent predicted hepatic clearance (CLhep, mL/min/kg, eq 3) was determined employing the following equations: [drawing 2] 1 where k represents the slope from linear regression analysis of the natural log percent remaining of test compound as a function of incubation time [drawing 3] 2
(§2) ^ascale-up factors: of 20 (human) or 45 (rat) [drawing 4] 3 where Qh (hepatic blood flow, mL/min/kg) is 21 (human) or 70 (rat).

[2] = intrinsic clearance, predicted hepatic clearance; format: in vitro ADME, human; settings: in vitro predicted hepatic clearance
Experimental: as §1, §2

brain homogenate binding = format: in vitro ADME, rat; settings: fraction unbound
[3] = plasma protein binding, equilibrium dialysis; format: in vitro ADME, rat; settings: fraction unbound
Experimental: (§3) The protein binding of each compound was determined in plasma via equilibrium dialysis employing RED Plates (ThermoFisher Scientific, Rochester, NY). Plasma was added to the 96 well plate containing test compound and mixed thoroughly for a final concentration of 5 μM. Subsequently, an aliquot of the plasma-compound mixture was transferred to the cis chamber (red) of the RED plate, with an phosphate buffer (25 mM, pH 7.4) in the trans chamber. The RED plate was sealed and incubated for 4 h at 37 °C with shaking. At completion, aliquots from each chamber were diluted 1:1 with either plasma (cis) or buffer (trans) and transferred to a new 96 well plate, at which time ice-cold acetonitrile containing internal standard (50 ng/mL carbamazepine) (2 volumes) was added to extract the matrices. The plate was centrifuged (3000 rcf, 10 min) and supernatants transferred and diluted 1:1 (supernatant: water) into a new 96 well plate, which was then sealed in preparation for LC/MS/MS analysis. Each compound was assayed in triplicate within the same 96-well plate. Fraction unbound was determined using the following equation [drawing 1]

[4] = plasma protein binding, equilibrium dialysis; format: in vitro ADME, human; settings: fraction unbound
Experimental: as §3

rat mGlu1 = rat mGlu1 (Rattus norvegicus, UniProt P23385); assay: mGlu1 calcium mobilization PAM assay; format: cell-based; settings: PAM, calcium flux
hmGlu1 = tested on: hmGlu1; parameters: method as in PMID 30116027, PMID 34731619, PMID 35643819, PMID 25137254, PMID 11606768; settings: Figure 1; read-out: hmGlu1 PAM EC50; cited from earlier work
mGlu4 = tested on: mGlu4; parameters: method as in PMID 30116027, PMID 34731619, PMID 35643819, PMID 25137254, PMID 11606768; settings: Figure 1; cited from earlier work
Sprague–Dawley rats = assay: catalepsy (latency to withdraw); format: in vivo; settings: rat, positive control, 1.5 mg/kg i.p.
Experimental: In order to enable our target validation work, we first profiled PAM 19d in a rat locomotor battery to ensure that pharmacodynamic efficacy was not mistaken for gross effects on locomotion.[20] […] PK was performed in parallel to establish a PK/PD relationship.[24]
Control rats were injected with 1.5 mg/kg of haloperidol i.p. (dissolved in 8% lactic acid and taken to volume of 50 mL with sterile water) and were returned to their home cage for 90 min. Cataleptic behavior is determined by placing the forelimbs on a bar raised 6 cm above the table and recording the amount of time it takes for the rat to withdraw the forelimbs with a cutoff of 60 s. Data are expressed as mean latency to withdraw + SEM or percent inhibition of catalepsy + SEM.

[5] = rat IV plasma:brain level (PBL) PK; format: in vivo

Chain of rat mGlu1 (P23385 19-1199): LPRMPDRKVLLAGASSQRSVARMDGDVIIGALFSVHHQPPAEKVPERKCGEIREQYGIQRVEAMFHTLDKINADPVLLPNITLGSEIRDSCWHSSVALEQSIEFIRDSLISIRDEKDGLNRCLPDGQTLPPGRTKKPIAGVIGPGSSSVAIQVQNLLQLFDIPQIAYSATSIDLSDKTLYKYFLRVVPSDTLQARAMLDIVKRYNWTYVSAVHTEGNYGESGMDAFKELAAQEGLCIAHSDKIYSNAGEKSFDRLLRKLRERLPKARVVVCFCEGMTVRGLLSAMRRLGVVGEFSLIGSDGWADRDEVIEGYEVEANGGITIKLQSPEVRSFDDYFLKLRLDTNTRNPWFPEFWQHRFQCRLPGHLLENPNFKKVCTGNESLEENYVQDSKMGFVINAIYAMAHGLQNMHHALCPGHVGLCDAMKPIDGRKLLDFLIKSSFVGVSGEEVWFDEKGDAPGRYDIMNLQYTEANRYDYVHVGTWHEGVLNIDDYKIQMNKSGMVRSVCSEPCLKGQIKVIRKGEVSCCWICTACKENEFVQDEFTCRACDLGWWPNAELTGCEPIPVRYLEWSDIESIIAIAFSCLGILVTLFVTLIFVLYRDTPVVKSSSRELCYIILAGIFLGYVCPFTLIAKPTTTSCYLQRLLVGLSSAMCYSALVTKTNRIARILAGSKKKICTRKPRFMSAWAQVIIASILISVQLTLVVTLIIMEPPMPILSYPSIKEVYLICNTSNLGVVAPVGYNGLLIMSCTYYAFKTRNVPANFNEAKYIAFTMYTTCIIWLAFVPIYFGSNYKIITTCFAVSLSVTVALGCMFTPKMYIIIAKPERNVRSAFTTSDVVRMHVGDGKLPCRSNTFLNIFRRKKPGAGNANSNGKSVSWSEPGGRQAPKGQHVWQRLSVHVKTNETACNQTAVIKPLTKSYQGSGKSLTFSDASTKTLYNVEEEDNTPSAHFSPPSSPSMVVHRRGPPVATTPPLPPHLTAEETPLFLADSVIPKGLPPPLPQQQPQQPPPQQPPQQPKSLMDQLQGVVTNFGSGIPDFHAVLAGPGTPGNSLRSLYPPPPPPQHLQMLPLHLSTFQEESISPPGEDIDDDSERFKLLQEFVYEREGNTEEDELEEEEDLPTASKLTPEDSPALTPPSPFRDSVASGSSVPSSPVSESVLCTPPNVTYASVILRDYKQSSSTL
T1 sequence (Q13255 19-1194): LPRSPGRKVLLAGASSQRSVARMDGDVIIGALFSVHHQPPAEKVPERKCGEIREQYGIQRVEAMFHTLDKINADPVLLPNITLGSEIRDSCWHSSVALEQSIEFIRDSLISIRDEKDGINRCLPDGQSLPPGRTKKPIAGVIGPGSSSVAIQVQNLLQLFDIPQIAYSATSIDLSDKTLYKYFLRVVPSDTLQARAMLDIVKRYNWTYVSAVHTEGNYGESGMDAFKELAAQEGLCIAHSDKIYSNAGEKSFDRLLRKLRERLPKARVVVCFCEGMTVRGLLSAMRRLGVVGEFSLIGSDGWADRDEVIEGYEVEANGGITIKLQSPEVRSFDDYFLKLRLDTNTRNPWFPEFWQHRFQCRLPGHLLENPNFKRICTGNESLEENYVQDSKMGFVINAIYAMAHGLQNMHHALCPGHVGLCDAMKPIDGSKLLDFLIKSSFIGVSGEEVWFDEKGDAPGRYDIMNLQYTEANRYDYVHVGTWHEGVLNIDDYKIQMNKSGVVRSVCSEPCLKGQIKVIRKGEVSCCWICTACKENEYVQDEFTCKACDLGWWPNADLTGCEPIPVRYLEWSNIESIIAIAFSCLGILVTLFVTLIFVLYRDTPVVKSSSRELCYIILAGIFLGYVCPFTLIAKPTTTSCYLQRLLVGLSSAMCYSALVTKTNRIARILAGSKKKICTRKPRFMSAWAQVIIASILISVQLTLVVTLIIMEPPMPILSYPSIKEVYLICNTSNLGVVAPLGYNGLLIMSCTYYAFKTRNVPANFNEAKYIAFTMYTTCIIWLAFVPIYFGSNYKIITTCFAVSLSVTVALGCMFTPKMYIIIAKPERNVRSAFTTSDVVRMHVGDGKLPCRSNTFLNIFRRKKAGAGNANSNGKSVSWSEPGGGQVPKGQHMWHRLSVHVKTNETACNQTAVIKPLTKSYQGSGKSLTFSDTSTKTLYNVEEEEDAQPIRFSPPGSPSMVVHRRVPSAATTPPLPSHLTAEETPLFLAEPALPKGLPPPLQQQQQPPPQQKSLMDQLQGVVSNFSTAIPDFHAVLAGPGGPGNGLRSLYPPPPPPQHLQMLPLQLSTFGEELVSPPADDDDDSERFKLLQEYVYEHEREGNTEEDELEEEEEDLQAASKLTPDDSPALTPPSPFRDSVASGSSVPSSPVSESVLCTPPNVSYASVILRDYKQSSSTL

| SMILES | EC50 (human mGlu1) [nM] | human mGlu1 Glumax (human mGlu1) [%] | CLhep, rat [1] [mL/min/kg] | CLhep, human [2] [mL/min/kg] | rat fubrain (brain homogenate binding) | rat fuplasma [3] | human fuplasma [4] | EC50 (rat mGlu1) [nM] | rat mGlu1 Glumax (rat mGlu1) [%] | Kp at 15 min ([5]; Sprague-Dawley, 0.25 mg/kg/compound, rat IV PBL, brain:plasma) | clearance ([5]; Sprague-Dawley, plasma, intravenous, rat PK PBL experiment, read-out: CLp) [mL/min/kg] | MRT ([5]; rat PK PBL experiment) [min] | t1/2 ([5]; rat PK PBL experiment) [min] | EC50 (hmGlu1) [nM] | selectivity vs. mGlu4 (mGlu4) | catalepsy (Sprague–Dawley rats) |
| --- | --- | --- | --- | --- | --- | --- | --- | --- | --- | --- | --- | --- | --- | --- | --- | --- |
| Cn1nc(C(F)(F)F)cc1CNC(=O)c1cc(-c2ccco2)ccc1Cl [Compound 15f, 2-Chloro-5-(furan-2-yl)-N-((1-methyl-3-(trifluoromethyl)-1H-pyrazol-5-yl)methyl)benzamide] | 188 | 60 | 57.1 | 20.3 | 0.019 | 0.025 | 0.036 | 280 | 74 |  |  |  |  |  |  |  |
| Cc1ccoc1C(=O)Nc1ccc(N2C(=O)c3cccc(F)c3C2=O)c(Cl)c1 [Compound 3] |  |  |  |  |  |  |  |  |  |  |  |  |  | 32 | ~ 35 fold |  |
| O=C(NCc1noc(-c2ccccc2)n1)c1cc(-c2ccco2)ccc1Cl [Compound 15b, 2-Chloro-5-(furan-2-yl)-N-((5-phenyl-1,2,4-oxadiazol-3-yl)methyl)benzamide] | 39 | 56 | 61.8 | 19.9 | 0.005 | 0.004 | 0.001 | 62 | 106 |  |  |  |  |  |  |  |
| O=C(Nc1ccc(N2C(=O)c3cccc(Cl)c3C2=O)c(Cl)c1)c1ncccc1Cl [Compound 2] |  |  |  |  |  |  |  |  |  |  |  |  |  | 390 | ~ 30 fold |  |
| O=C(CCCN1CCC(O)(c2ccc(Cl)cc2)CC1)c1ccc(F)cc1 [haloperidol, reference compound] |  |  |  |  |  |  |  |  |  |  |  |  |  |  |  | induced profound catalepsy |
| O=C(NCc1cc(-c2ccccc2)no1)c1cc(-c2ccco2)ccc1Cl [Compound 15a, 2-Chloro-5-(furan-2-yl)-N-((3-phenylisoxazol-5-yl)methyl)benzamide] | 211 | 96 | 60.9 | 19.4 |  | 0.009 | 0.001 |  |  |  |  |  |  |  |  |  |
| O=C(NCc1cnn2ccccc12)c1cc(-c2ccco2)ccc1Cl [Compound 9k, 2-Chloro-5-(furan-2-yl)-N-(pyrazolo[1,5-a]pyridin-3-ylmethyl)benzamide] | 51 | 53 | 63.7 | 19.8 | 0.021 | 0.022 | 0.036 | 109 | 92 | 0.27 | 67.2 | 21.3 | 23.8 |  |  |  |
| O=C(NCc1cnc(-c2cccs2)s1)c1cc(-c2ccco2)ccc1Cl [Compound 15e, 2-Chloro-5-(furan-2-yl)-N-((2-(thiophen-2-yl)thiazol-5-yl)methyl)benzamide] | 96 | 71 | 57.4 | 19.7 | 0.002 | 0.003 | 0.001 | 301 | 51 |  |  |  |  |  |  |  |
| Cc1ccoc1C(=O)Nc1ccc(N2Cc3c(Cl)cccc3C2=O)c(Cl)c1 [Compound 5] |  |  |  |  |  |  |  |  |  |  |  |  |  | 211 | ~ 50 fold |  |

More lines, main results first:

| EC50 (human mGlu1) [nM] | human mGlu1 Glumax (human mGlu1) [%] | CLhep, rat [1] [mL/min/kg] | CLhep, human [2] [mL/min/kg] | rat fubrain (brain homogenate binding) | rat fuplasma [3] | human fuplasma [4] | EC50 (rat mGlu1) [nM] | rat mGlu1 Glumax (rat mGlu1) [%] | Kp at 15 min ([5]; Sprague-Dawley, 0.25 mg/kg/compound, rat IV PBL, brain:plasma) | clearance ([5]; Sprague-Dawley, plasma, intravenous, rat PK PBL experiment, read-out: CLp) [mL/min/kg] | MRT ([5]; rat PK PBL experiment) [min] | t1/2 ([5]; rat PK PBL experiment) [min] | SMILES | EC50 (hmGlu1) [nM] | selectivity vs. mGlu4 (mGlu4) | catalepsy (Sprague–Dawley rats) |
| --- | --- | --- | --- | --- | --- | --- | --- | --- | --- | --- | --- | --- | --- | --- | --- | --- |
| 56 | 69 | 54.8 | 19.0 | 0.003 | 0.002 | 0.002 | 20 | 109 |  |  |  |  | Cn1nc(-c2cccs2)cc1CNC(=O)c1cc(-c2ccco2)ccc1Cl [Compound 19a, 2-Chloro-5-(furan-2-yl)-N-((1-methyl-3-(thiophen-2-yl)-1H-pyrazol-5-yl)methyl)benzamide] |  |  |  |
| 195 | 85 | 56.4 | 18.6 | 0.003 | 0.002 | 0.002 | 133 | 116 |  |  |  |  | Cn1nc(-c2ccccc2F)cc1CNC(=O)c1cc(-c2ccco2)ccc1Cl [Compound 19b, 2-Chloro-N-((3-(2-fluorophenyl)-1-methyl-1H-pyrazol-5-yl)methyl)-5-(furan-2-yl)benzamide] |  |  |  |
| 74 | 60 | 51.7 | 18.8 | 0.021 | 0.015 | 0.023 | 124 | 116 |  |  |  |  | Cn1nc(-c2cccnc2)cc1CNC(=O)c1cc(-c2ccco2)ccc1Cl [Compound 19c, 2-Chloro-5-(furan-2-yl)-N-((1-methyl-3-(pyridin-3-yl)-1H-pyrazol-5-yl)methyl)benzamide] |  |  |  |
